US12552767B2, “3-heteroaryl pyrrolidine and piperidine orexin receptor agonists” (Merck Sharp & Dohme LLC, priority 2020, dated 2026)

Target: T1, human OX2R (Homo sapiens, UniProt O43614)
T1 construct: expressed in transfected cells; host or cells: CHO (Chinese hamster ovary) cells, grown under G418 selection
T1 sequence (O43614 1-444): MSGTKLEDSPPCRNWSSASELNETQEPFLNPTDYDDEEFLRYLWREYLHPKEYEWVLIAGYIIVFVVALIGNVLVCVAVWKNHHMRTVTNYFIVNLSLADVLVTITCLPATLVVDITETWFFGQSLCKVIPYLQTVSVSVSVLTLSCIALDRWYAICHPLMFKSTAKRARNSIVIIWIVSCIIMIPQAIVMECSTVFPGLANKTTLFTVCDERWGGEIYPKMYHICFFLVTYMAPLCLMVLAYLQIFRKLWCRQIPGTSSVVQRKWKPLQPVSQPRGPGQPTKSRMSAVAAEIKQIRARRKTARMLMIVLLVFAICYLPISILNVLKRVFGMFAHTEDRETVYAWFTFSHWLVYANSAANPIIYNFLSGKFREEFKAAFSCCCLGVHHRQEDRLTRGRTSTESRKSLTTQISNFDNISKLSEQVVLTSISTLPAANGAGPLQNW
Experiment: IP-One (IPOne) orexin receptor agonist assay in CHO cells expressing human OX2R
Format: cell-based
Conditions: for EC50: CHO cells expressing human OX2R, IP-One IP-1 detection, 2 hours incubation, four parameter logistic fit, read-out: OX2R Potency, EC50; for % of reference agonist maximal effect: human OX2R, percentage of sample raw value/mean max effect (reference compound at 1 uM with 100% activity)
Description: The utility of the compounds in accordance with the present invention as orexin receptor OX1R and/or OX2R agonists may be readily determined without undue experimentation by methodology well known in the art. Both the OX1R and/or OX2R G-coupled protein receptors (GPCRs) couple through the Gαq signaling pathway, which ultimately promotes calcium mobilization via inositol triphosphate (IP3) production. The half-life of IP-3 is relatively short, being rapidly metabolized to inositol monophosphate (IP-1), which can be readily detected using a commercially available assay kit (IP-One; Cisbio; cat #621PAPEC) coupled with a cell line expressing the target receptor(s) of interest. The utility of the compounds in accordance with the present invention as orexin receptor OX1R and/or OX2R agonists may be determined utilizing this assay.
In a typical experiment, the OX1 and OX2 receptor agonist activity is determined in accordance with the following general experimental method. Chinese hamster ovary (CHO) cells expressing human OX1R and/or the human OX2R were grown in Iscove's modified DMEM containing glutaMAX™, 1% G418, 100 U/mL penicillin, 100 μg/mL streptomycin and 10% heat-inactivated qualified fetal bovine serum (FBS). The OX2R cells were seeded at 10,000 cells/well/50 μL and the OX1R cells were seeded at 20,000 cells/well/50 μL into 384-well white tissue culture plates (Greiner; cat #781080). All cell/media reagents were from GIBCO-Invitrogen Corp. The seeded cell plate(s) were incubated at 37° C. with 5% CO2 and 85% humidity for 20-24 hours. On the day of the assay, assay-ready compound plates were prepared using an acoustic liquid handler (ECHO; Labcyte), which dispensed sufficient volume of test compound stock (10 mM in DMSO) or 100% DMSO to prepare 10 point, ½-log dilutions in a final volume of 202.5 nL/well in all test wells of a 384-well diamond plate (Labcyte). Following completion of assay-ready plates, importantly, the next three steps were performed with minimal delay: 1) 20 μl of 1× stimulation buffer was added to the compound plate using a Multidrop Combi (small cassette, Thermo Fisher Scientific cat #24073290); 2) culture medium was removed from the cell plate using the Bluewasher plate washer (gentle spin; BlueCatBio); 3) 14 μl of compound/stimulation buffer mixture was added to the cell plate using a Bravo liquid handler (Agilent) prior to incubating cell plates at 37° C. with 5% CO2 and 85% humidity for 1 or 2 hours (OX1R and OX2R, respectively). During this incubation, IP-one detection reagents were prepared (38:1:1 lysis buffer:D2:AB-cryptate reagents). Six μL of mixed detection reagents were added to the cell plate using a Multidrop Combi (small cassette, Thermo Fisher Scientific cat #24073290) and incubated 60 minutes at room temperature in the dark. Fluorescence signal was detected using an Envision plate reader (Perkin Elmer) [LANCE/DELFIA Dual Enh (Em: APC 665; Ex: Cy5 620)].
For each compound, data were fit to a four parameter logistic fit (ActivityBase software) and the EC50 was reported as the inflection point of the resulting curve. Percent effect for each test compound was determined as the percentage of sample raw value/mean max effect, where the mean max effect was derived from the mean raw value of 32 control wells per assay plate (using Orexin A (cat #003-30) at 1 μM for human OX1R and a reference compound at 1 uM with 100% activity previously established by comparison to Orexin A for human OX2R). The intrinsic orexin receptor agonist activity of a compound which may be used in the present invention may be determined by these assays.

Compound | EC50 | % of reference agonist maximal effect
Cc1cn[nH]c1[C@H]1CCCN(C(=O)OCC(F)F)[C@H]1CO[C@H]1CC[C@@H](c2ccccc2)CC1 (relative stereo) [Example 24, 2,2-difluoroethyl (CIS)-3-(4-methyl-1H-pyrazol-5-yl)-2-((((CIS)-4-phenylcyclohexyl)oxy)methyl)piperidine-1-carboxylate] | 348 nM | 100.4%
COC(=O)N1CCC[C@H](c2[nH]ncc2C(F)(F)F)[C@@H]1CO[C@H]1CC[C@@H](c2ccccc2)CC1 (relative stereo) [Example 25, methyl (CIS)-2-((((CIS)-4-phenylcyclohexyl)oxy)methyl)-3-(4-(trifluoromethyl)-1H-pyrazol-5-yl)piperidine-1-carboxylate] | 879 nM | 92.8%
COC(=O)N1CCC[C@H](c2ncn[nH]2)[C@@H]1CO[C@H]1CC[C@@H](c2ccccc2)CC1 (relative stereo) [Example 26, methyl (CIS)-2-((((CIS)-4-phenylcyclohexyl)oxy)methyl)-3-(1H-1,2,4-triazol-5-yl)piperidine-1-carboxylate] | 2430 nM | 83.6%
CCNC(=O)N1CCC[C@H](c2ccn(C)n2)[C@@H]1CO[C@H]1CC[C@@H](c2ccccc2)CC1 (relative stereo) [Example 27, (CIS)-N-ethyl-3-(1-methyl-1H-pyrazol-3-yl)-2-((((CIS)-4-phenylcyclohexyl)oxy)-methyl)piperidine-1-carboxamide] | 3510 nM | 82.5%
CCNC(=O)N1CC[C@H](c2cc[nH]n2)[C@@H]1CO[C@H]1CC[C@@H](c2ccccc2)CC1 (relative stereo) [Example 28, (CIS)-N-ethyl-2-((((CIS)-4-phenylcyclohexyl)ox)methyl)-3-(1H-pyrazol-3-yl)pyrrolidine-1-carboxamide] | 5960 nM | 22.9%
O=C(OCCF)N1CCCC(c2ccn[nH]2)C1CO[C@H]1CC[C@@H](c2c(F)ccc(F)c2F)CC1 (relative stereo) [Example 30, 2-Fluoroethyl 3-(1H-pyrazol-5-yl)-2-((((CIS)-4-(2,3,6-trifluorophenyl)cyclohexyl)oxy)methyl)-piperidine-1-carboxylate] | 2920 nM | 87.6%
O=C(OCC(F)(F)F)N1CCCC(c2ccn[nH]2)C1CO[C@H]1CC[C@@H](c2c(F)ccc(F)c2F)CC1 (relative stereo) [Example 31, 2,2,2-Trifluoroethyl 3-(1H-pyrazol-5-yl)-2-((((CIS)-4-(2,3,6-trifluorophenyl)cyclohexyl)-oxy)methyl)piperidine-1-carboxylate] | 7440 nM | 72.7%
O=C(CO)N1CCCC(c2ccn[nH]2)C1CO[C@H]1CC[C@@H](c2c(F)ccc(F)c2F)CC1 (relative stereo) [Example 32, 1-(3-(1H-Pyrazol-5-yl)-2-((((CIS)-4-(2,3,6-trifluorophenyl)cyclohexyl)oxy)methyl)piperidin-1-yl)-2-hydroxyethan-1-one] | 3730 nM | 86.3%
COC(=O)N1CCC[C@H](c2n[nH]cc2I)[C@@H]1CO[C@H]1CC[C@@H](c2ccccc2)CC1 (relative stereo) [Example 42, Methyl cis-3-(4-iodo-1H-pyrazol-3-yl)-2-((((CIS)-4-phenylcyclohexyl)oxy)methyl)piperidine-1-carboxylate] | 41.2 nM | 100.8%
COCc1c[nH]nc1[C@H]1CCCN(C(=O)OC)[C@H]1CO[C@H]1CC[C@@H](c2ccccc2)CC1 (relative stereo) [Example 57, Methyl cis-3-(4-(methoxymethyl)-1H-pyrazol-3-yl)-2-((((CIS)-4-phenylcyclohexyl)oxy)methyl)-piperidine-1-carboxylate] | 351 nM | 99.6%
